The values that follow come from patent US20120004297A1, “Agent for alleviating vascular failure” (Naoki HIGASHI, priority 2005, published 2012).

In experiment [1] the test system is Vascular endothelial cells (GM07373A). Put plainly: Fluorescent intensity of vascular endothelial cells injured by hydrogen peroxide plus glucose, 24-wells plate, graphic analysis software method. Format: cell-based, cattle. The note with it: for Fluorescent intensity compared with the hydrogen peroxide plus glucose added system: sample further added to hydrogen peroxide plus glucose. How it is done:
Vascular endothelial cells (GM07373A) subcultured with 10% FBS added EMEM were separated with a trypsin-EDTA solution. To 1.5 ml of the solution of the cells floated on 10% FBS added EMEM was added 9 ml of 10% FBS added EMEM and the resultant mixture was placed in a laboratory dish having a diameter of 9 cm and pre-cultivation was conducted at 37° C. for 3-4 days under an atmosphere of 5% carbon dioxide. Vascular endothelial cells in the culture broth were separated with a trypsin-EDTA solution and floated on 10% FBS added EMEM. 1 ml of the floated cell solution (number of cell: 0.7-0.9×10^5 cell/ml) was poured into each well of 24-wells plate and the main cultivation was conducted at 37° C. for 2 days under an atmosphere of 5% carbon dioxide. After removal of the culture medium, 0.4% FBS added EMEM was added in an amount of 500 μl per well to make the cells in starved state and cultivation was conducted at 37° C. over a night under an atmosphere of 5% carbon dioxide. A sample solution and 10 μl of an aqueous glucose solution (200 mg/ml) were added and cultivation was conducted at 37° C. for 2 hours under an atmosphere of 5% carbon dioxide. After removal of the culture medium, A Hanks' solution (a product of Nihon Pharmaceutical Co., Ltd.) was added to the wells in the amount of 1 ml per well for twice washing. After removal of the solution, a dye solution containing hydrogen peroxide (or a dye solution not containing hydrogen peroxide) was added in the amount of 300 μl per well and cultivation was conducted at 37° C. for 30 minutes under an atmosphere of 5% carbon dioxide. The dye solution was removed to measure the fluorescent intensity of the cell.
GM07373A is a cattle's aortic vascular endothelial cell strain, “Repository No. GM07373A” purchased from Coriel Human Genetic Cell Repository in U.S.A. The dye solution containing hydrogen peroxide was prepared by mixing 50 μg of the solution of fluorescent pigment (“C-6827”, a product of Molecular Probe Company) dissolved in 90 μl of DMSO with 9 ml of the Hanks' solution and adding 90 μl of 0.3% hydrogen peroxide thereto. Hydrogen peroxide was not added for the control test.
As a sample solution, there were used methanol solutions of astaxanthin (a product of Sigma Company) in 0.053 mg/ml and 0.0053 mg/ml, methanol solutions of α-tocopherol (a product of Wako Pure Chemical Industries, Ltd.) in 0.25 mg/ml and 0.025 mg/ml and methanol solutions of tocotrienol (a product of Sigma Company) in 0.25 mg/ml and 0.025 mg/ml. 10 μl of each of the sample solution was added to 500 μl of the culture medium.
The fluorescent intensity was measured at the optional three places under 100 times magnifications using a Leica stereoscopic fluorescence microscope “MZ FL III” (having a Leica macro fluorescence apparatus having a “GFP” attachment) and a filter set (name): GEP Plant fluorescence (GFP2) (excitation filter: 480/40 nm, absorption filter: 510 nm). Each of the pictures was captured by a CDD camera and converted into gray intensity % to measure the fluorescent intensity. The fluorescent intensity was measured for three places per well and the average value was calculated. Also, 3-4 wells were prepared for each kind of sample.
The system where astaxanthin has added is one where astaxanthin in addition to hydrogen peroxide plus glucose was added. The period of time for pre-cultivation was […] and the number of cells was 0.84×10^5 cell per well.
The tocotrienol or α-tocopherol added system is one where tocotrienol or α-tocopherol in addition to hydrogen peroxide plus glucose was added. The period of time for pre-cultivation was 3 days and the number of cells was 0.89×10^5 cell per well.

The conditions of experiment [2]: cited from earlier work.
Where [3] appears, read: specimen 0.5 μg/ml added in addition to hydrogen peroxide plus glucose.
The mark [4] stands for this setting: specimen 5.0 μg/ml added in addition to hydrogen peroxide plus glucose.

As for `CC1=C(/C=C/C(C)=C/C=C/C(C)=C/C=C/C=C(C)/C=C/C=C(C)/C=C/C2=C(C)C(=O)C(O)CC2(C)C)C(C)(C)CC(O)C1=O` (stereo not drawn) [Astaxanthin, 3,3′-dihydroxy-β,β-carotene-4,4′-dione], the figures for the “Fluorescent intensity (%)” value in experiment [1] (astaxanthin 0.104 μg/ml added in addition to hydrogen peroxide plus glucose) and in experiment [1] (astaxanthin 1.04 μg/ml added in addition to hydrogen peroxide plus glucose) were 2.55% and 1.93%, respectively. In addition, the “Fluorescent intensity compared with the hydrogen peroxide plus glucose added system” value in experiment [1] is given as “less fluorescent intensity than the hydrogen peroxide plus glucose added system”. Besides, the “Antioxidative action, times as strong as vitamin E” value in experiment [2] (relative to vitamin E) is on record as “about 1000 times”. Besides, in experiment [2] (relative to β-carotene), the “Antioxidative action, times as strong as β-carotene” value is reported as “about 40 times”.

As to `Cc1c(C)c2c(c(C)c1O)CC[C@@](C)(CCC[C@H](C)CCC[C@H](C)CCCC(C)C)O2` [α-Tocopherol, α-tocopherol], the “Fluorescent intensity compared with the hydrogen peroxide plus glucose added system” value in experiment [1] was “less fluorescent intensity than the hydrogen peroxide plus glucose added system”. Also, the “Fluorescent intensity (%)” value turned out to be 4.74% in experiment [1] (setting [3]) and 4.32% in experiment [1] (setting [4]).

Consider tocotrienol [Tocotorienol], for which the “Fluorescent intensity compared with the hydrogen peroxide plus glucose added system” value in experiment [1] is on record as “less fluorescent intensity than the hydrogen peroxide plus glucose added system”. The “Fluorescent intensity (%)” value worked out at 4.35% in experiment [1] (setting [3]) and 4.40% in experiment [1] (setting [4]). For the same compound, in experiment [2] (relative to tocopherol), the “Antioxidative action, times as strong as tocopherol” value was “about 50 times”.
